Data reported in US10167284B2, “Spirocyclic compounds as agonists of the muscarinic M1 receptor and/or M4 receptor” (HEPTARES THERAPEUTICS LIMITED, priority 2015, dated 2019).

Assays:
[1] = target: T1, human muscarinic M4 receptor (Homo sapiens, UniProt P08173); assay: Alphascreen Surefire phospho-ERK1/2 functional assay, M4; type: cell-based; conditions: for M4 % Emax cf. ACh / EC50: CHO cells stably expressing human M4; for M4 % Emax cf. ACh / Emax: Emax relative to ACh; for EC50: phospho-ERK1/2, read-out: pEC50 M4 (converted); for Emax: CHO, read-out: M4 % Emax cf. ACh, CHO cells stably expressing human M4
T1 construct: expressed in transfected cells
T1 sequence (P08173 1-479): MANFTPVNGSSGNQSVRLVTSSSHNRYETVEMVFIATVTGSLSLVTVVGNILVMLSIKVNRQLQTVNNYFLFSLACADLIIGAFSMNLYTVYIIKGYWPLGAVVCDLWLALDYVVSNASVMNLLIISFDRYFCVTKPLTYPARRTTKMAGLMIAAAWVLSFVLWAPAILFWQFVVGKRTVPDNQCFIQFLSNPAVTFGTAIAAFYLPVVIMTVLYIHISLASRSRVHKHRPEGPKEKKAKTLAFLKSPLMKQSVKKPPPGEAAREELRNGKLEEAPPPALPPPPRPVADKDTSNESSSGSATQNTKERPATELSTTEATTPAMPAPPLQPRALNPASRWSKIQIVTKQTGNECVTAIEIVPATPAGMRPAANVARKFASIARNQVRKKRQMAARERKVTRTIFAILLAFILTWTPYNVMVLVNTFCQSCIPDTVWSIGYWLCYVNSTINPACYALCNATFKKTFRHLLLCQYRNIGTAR

[2] = target: T2, human muscarinic M2 receptor (Homo sapiens, UniProt P08172); assay: Alphascreen Surefire phospho-ERK1/2 functional assay, M2; conditions: for M2 % Emax cf. ACh / pEC50 M2: CHO cells stably expressing human M2; for M2 % Emax cf. ACh / Emax: Emax relative to ACh; for pEC50 M2 / EC50: phospho-ERK1/2; for EC50: pEC50 M2, CHO cells stably expressing human M2; for Emax: CHO, read-out: M2 % Emax cf. ACh, CHO cells stably expressing human M2
T2 sequence (P08172 1-466): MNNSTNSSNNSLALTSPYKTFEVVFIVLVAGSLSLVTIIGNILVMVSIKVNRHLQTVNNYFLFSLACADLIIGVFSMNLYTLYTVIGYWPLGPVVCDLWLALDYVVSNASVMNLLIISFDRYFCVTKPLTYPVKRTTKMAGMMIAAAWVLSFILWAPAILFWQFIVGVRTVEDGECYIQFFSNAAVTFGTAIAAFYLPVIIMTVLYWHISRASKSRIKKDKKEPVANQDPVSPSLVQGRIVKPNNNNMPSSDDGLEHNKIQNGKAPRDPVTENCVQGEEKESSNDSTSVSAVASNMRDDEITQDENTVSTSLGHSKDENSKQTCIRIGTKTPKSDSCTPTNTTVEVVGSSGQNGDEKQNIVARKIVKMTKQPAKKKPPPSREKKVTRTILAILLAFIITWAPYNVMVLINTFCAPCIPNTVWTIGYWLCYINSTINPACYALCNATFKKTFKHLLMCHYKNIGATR
Protocol: (§1) CHO cells stably expressing the human muscarinic M1, M2, M3 or M4 receptor were plated (25K/well) onto 96-well tissue culture plates in MEM-alpha+10% dialysed FBS. Once adhered, cells were serum-starved overnight. Agonist stimulation was performed by the addition of 5 μL agonist to the cells for 5 min (37° C.). Media was removed and 50 μL of lysis buffer added. After 15 min, a 4 μL sample was transferred to 384-well plate and 7 μL of detection mixture added. Plates were incubated for 2 h with gentle agitation in the dark and then read on a PHERAstar plate reader.
(§2) pEC50 and Emax figures were calculated from the resulting data for each receptor subtype.

[3] = target: human muscarinic M3 receptor (Homo sapiens, UniProt P20309); assay: Alphascreen Surefire phospho-ERK1/2 functional assay, M3; conditions: for M3 % Emax cf. ACh / pEC50 M3: CHO cells stably expressing human M3; for M3 % Emax cf. ACh / Emax: Emax relative to ACh; for pEC50 M3: phospho-ERK1/2; for Emax: CHO, read-out: M3 % Emax cf. ACh, CHO cells stably expressing human M3
human muscarinic M3 receptor, sequence (P20309 whole entry): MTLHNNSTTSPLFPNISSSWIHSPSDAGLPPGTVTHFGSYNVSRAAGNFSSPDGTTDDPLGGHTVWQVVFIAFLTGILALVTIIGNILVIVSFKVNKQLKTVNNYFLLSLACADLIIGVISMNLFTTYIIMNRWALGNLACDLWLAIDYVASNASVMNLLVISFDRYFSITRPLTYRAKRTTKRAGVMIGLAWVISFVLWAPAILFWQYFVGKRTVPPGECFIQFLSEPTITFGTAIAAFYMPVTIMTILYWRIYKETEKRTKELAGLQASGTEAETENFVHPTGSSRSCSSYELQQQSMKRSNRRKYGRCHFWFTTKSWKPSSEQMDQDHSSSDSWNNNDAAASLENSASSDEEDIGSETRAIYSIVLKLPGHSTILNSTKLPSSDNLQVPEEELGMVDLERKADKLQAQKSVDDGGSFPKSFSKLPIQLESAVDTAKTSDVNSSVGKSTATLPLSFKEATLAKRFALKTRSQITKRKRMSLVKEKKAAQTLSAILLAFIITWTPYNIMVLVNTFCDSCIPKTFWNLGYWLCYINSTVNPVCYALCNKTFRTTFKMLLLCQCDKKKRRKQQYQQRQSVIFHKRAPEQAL
Protocol: as §1, §2

[4] = target: T3, human muscarinic M1 receptor (Homo sapiens, UniProt P11229); assay: Alphascreen Surefire phospho-ERK1/2 functional assay, M1; type: cell-based; conditions: for M1 % Emax cf. ACh / EC50: CHO cells stably expressing human M1; for M1 % Emax cf. ACh / Emax: Emax relative to ACh; for EC50: phospho-ERK1/2, read-out: pEC50 M1 (converted); for Emax: CHO, read-out: M1 % Emax cf. ACh, CHO cells stably expressing human M1
T3 construct: expressed in transfected cells
T3 sequence (P11229 1-460): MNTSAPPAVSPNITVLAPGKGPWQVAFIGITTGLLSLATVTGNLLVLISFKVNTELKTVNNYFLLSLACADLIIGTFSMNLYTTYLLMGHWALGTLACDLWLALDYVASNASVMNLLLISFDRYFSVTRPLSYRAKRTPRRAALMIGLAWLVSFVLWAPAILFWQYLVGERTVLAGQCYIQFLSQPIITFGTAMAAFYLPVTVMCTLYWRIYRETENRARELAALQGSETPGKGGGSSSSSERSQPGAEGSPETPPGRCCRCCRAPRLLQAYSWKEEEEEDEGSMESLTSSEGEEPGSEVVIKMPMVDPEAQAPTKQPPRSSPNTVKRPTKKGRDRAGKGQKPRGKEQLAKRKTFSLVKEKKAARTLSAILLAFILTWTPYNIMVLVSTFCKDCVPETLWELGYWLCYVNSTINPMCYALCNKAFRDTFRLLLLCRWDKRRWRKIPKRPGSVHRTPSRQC

Structure (SMILES) | M4 % Emax cf. ACh [1] | EC50 [1] | M2 % Emax cf. ACh [2] | pEC50 M2 [2] | M3 % Emax cf. ACh [3] | pEC50 M3 [3] | M1 % Emax cf. ACh [4] | EC50 [4] | EC50 [2] | EC50 [3] | Emax [3] | Emax [2] | Emax [1] | Emax [4]
CCOC(=O)N1CCC2(CC(N3CCC4(CC3)CC(=O)NN4Cc3ccccc3)C2)C1 (single isomer, unassigned) [6-6 Isomer 2] | 26) % | 0.316 µM |  |  |  |  | (71) % | 0.158 µM | > 20 µM | > 20 µM | 4% | 3% |  | 
CCN1NC(=O)CC12CCN(C1CC3(CCN(C(=O)OC)C3)C1)CC2 (single isomer, unassigned) [6-1 Isomer 2] |  | 0.126 µM |  |  |  |  |  | 0.631 µM | > 20 µM | > 20 µM | 11% | 13% | 68% | 77%
CCOC(=O)N1CC2(CCC(N3CCC4(CC3)OC(=O)NC4CC)C2)C1 (mixture of isomers) [8-1 mixture of diastereomers] |  | 0.002 µM |  |  |  |  |  | 0.01 µM | > 20 µM | > 20 µM | 2% | 0% | 70% | 70%
CCOC(=O)N1CCC2(CC(N3CCC4(CC3)OC(=O)N(CCF)C4(C)C)C2)C1 (single isomer, unassigned) [4-40 Isomer 2] |  | 0.0398 µM |  |  |  |  |  | 7.94 µM | > 20 µM | > 20 µM | 6% | 4% | 109% | 37%
CCC1NC(=O)CC12CCN(C1CC3(CCN(C(=O)OC)C3)C1)CC2 (single isomer, unassigned) [3-4 Isomer 4] | (76) % | 0.00631 µM | (20) % | <4.7 | (17) % | <4.7 | (90) % | 0.0631 µM |  |  |  |  |  | 
CCOC(=O)N1CCC2(CC(N3CCC4(CC3)CNC(=O)O4)C2)C1 (single isomer, unassigned) [4-3 Isomer 2] | (78) % | 0.0398 µM |  |  |  |  | (116) % | 0.02 µM | > 20 µM | > 20 µM | 7% | 0% |  | 
[2H]C([2H])([2H])OC(=O)N1CCC2(CC(N3CCC4(CC3)CNC(=O)O4)C2)C1 (single isomer, unassigned) [4-2 Isomer 2] |  | 0.2 µM |  |  |  |  |  | 0.251 µM | > 20 µM | > 20 µM | 42% | 13% | 76% | 113%
COC(=O)N1CCC2(CC(N3CCC4(CC3)CC(=O)NC4Cc3ccccc3)C2)C1 (single isomer, unassigned) [3-7 Isomer 2] |  | 0.0794 µM |  |  |  |  |  | 0.0251 µM | > 20 µM | > 20 µM | 14% | 11% | 57% | 101%
CCOC(=O)N1CCC2(CC(N3CCC4(CC3)OC(=O)N(CC)C4CC)C2)C1 (single isomer, unassigned) [4-22 Isomer 4] | (113) % | 0.0501 µM | (23) % | <4.7 | (2) % | <4.7 | (104) % | 0.2 µM |  |  |  |  |  | 
CCOC(=O)N1CCC2(CC(N3CCC4(CC3)OC(=O)N3CCCC34)C2)C1 (single isomer, unassigned) [4-44 Isomer 3] | (43) % | 0.0501 µM |  |  | (3) % |  | (40) % | 0.2 µM | > 20 µM | > 20 µM |  | 7% |  | 
CCOC(=O)N1CCC2(CC(N3CCC4(CC3)OC(=O)NC4CC(F)(F)F)C2)C1 (single isomer, unassigned) [4-17 Isomer 1 (racemic)] |  | 0.0316 µM |  |  |  |  |  | 0.126 µM | > 20 µM | > 20 µM | 14% | 54% | 107% | 114%
CCOC(=O)N1CCC2(CC(N3CCC4(CC3)CC(=O)N(CC)N4CC)C2)C1 (single isomer, unassigned) [6-8 Isomer 2] |  | 0.0631 µM |  |  |  |  |  | 3.16 µM | > 20 µM | > 20 µM | 100% | 10% | 103% | 55%

Second part, the molecule after the results:

M4 % Emax cf. ACh [1] | EC50 [1] | M2 % Emax cf. ACh [2] | pEC50 M2 [2] | M3 % Emax cf. ACh [3] | pEC50 M3 [3] | M1 % Emax cf. ACh [4] | EC50 [4] | EC50 [2] | EC50 [3] | Emax [3] | Emax [2] | Emax [1] | Emax [4] | Structure (SMILES)
(97) % | 0.0794 µM | (14) % | <4.7 | (10) % | <4.7 | (67) % | 1.26 µM |  |  |  |  |  |  | CCOC(=O)N1CCC2(CC(N3CCC4(CC3)OC(=O)N3CCCC34)C2)C1 (single isomer, unassigned) [4-44 Isomer 4]
(63) % | 0.0794 µM | (50) % |  |  |  | (17) % | > 20 µM | > 20 µM | > 20 µM | 4% |  |  |  | CCOC(=O)N1CCC2(CC(N3CCC4(CC3)OC(=O)NC4CC)C2)C1 (single isomer, unassigned) [4-12 Isomer 1]
(80) % | 0.0316 µM | (3) % |  |  |  | (95) % | 0.2 µM | > 20 µM | > 20 µM | 1% |  |  |  | CCOC(=O)N1CCC2(CC(N3CCC4(CC3)OC(=O)N(CC)C4CC)C2)C1 (single isomer, unassigned) [4-22 Isomer 3]
(118) % | 0.00631 µM | (20) % |  | (8) % | <4.7 | (111) % | 0.0251 µM | > 6.31 µM |  |  |  |  |  | CCOC(=O)N1CCC2(CC(N3CCC4(CC3)OC(=O)NC4CC)C2)C1 (single isomer, unassigned) [4-12 Isomer 3]
 | 0.501 µM |  |  |  |  |  | 0.631 µM | > 20 µM | > 20 µM | 2% | 41% | 69% | 104% | CCCN1CC2(CCN(C3CC4(CCN(C(=O)OCC)C4)C3)CC2)OC1=O (single isomer, unassigned) [4-7 Isomer 2]
(95) % | 0.0316 µM | (3) % | <4.7 | (1) % | <4.7 | (25) % | > 20 µM |  |  |  |  |  |  | CCOC(=O)N1CCC2(CC(N3CCC4(CC3)OC(=O)N(CC(C)C)C4(C)C)C2)C1 (single isomer, unassigned) [4-38 Isomer 2]
(59) % | 0.0316 µM |  |  |  |  | (97) % | 0.158 µM | > 20 µM | > 20 µM | 4% | 10% |  |  | CCOC(=O)N1CCC2(CC(N3CCC4(CC3)OC(=O)N(C)C4CC)C2)C1 (single isomer, unassigned) [4-20 Isomer 3]
